In patent publication US8952034B2, “Fused heterocyclic compounds as ion channel modulators” (Gilead Sciences, Inc., priority 2009, dated 2015):

target: wild-type human cardiac sodium channel, hNav1.5 (Homo sapiens, UniProt Q14524); experiment: Late INa screening assay (automated whole cell patch clamp, PatchXpress); assay type: cell-based; settings: compound at 1 μM; HEK293 cells expressing hNav1.5; late INa generated with 10 μM Tefluthrin (or 50 nM ATX II); read-out: LateINa_1 uM (percent block of late INa)
Sequence (Q14524 whole entry): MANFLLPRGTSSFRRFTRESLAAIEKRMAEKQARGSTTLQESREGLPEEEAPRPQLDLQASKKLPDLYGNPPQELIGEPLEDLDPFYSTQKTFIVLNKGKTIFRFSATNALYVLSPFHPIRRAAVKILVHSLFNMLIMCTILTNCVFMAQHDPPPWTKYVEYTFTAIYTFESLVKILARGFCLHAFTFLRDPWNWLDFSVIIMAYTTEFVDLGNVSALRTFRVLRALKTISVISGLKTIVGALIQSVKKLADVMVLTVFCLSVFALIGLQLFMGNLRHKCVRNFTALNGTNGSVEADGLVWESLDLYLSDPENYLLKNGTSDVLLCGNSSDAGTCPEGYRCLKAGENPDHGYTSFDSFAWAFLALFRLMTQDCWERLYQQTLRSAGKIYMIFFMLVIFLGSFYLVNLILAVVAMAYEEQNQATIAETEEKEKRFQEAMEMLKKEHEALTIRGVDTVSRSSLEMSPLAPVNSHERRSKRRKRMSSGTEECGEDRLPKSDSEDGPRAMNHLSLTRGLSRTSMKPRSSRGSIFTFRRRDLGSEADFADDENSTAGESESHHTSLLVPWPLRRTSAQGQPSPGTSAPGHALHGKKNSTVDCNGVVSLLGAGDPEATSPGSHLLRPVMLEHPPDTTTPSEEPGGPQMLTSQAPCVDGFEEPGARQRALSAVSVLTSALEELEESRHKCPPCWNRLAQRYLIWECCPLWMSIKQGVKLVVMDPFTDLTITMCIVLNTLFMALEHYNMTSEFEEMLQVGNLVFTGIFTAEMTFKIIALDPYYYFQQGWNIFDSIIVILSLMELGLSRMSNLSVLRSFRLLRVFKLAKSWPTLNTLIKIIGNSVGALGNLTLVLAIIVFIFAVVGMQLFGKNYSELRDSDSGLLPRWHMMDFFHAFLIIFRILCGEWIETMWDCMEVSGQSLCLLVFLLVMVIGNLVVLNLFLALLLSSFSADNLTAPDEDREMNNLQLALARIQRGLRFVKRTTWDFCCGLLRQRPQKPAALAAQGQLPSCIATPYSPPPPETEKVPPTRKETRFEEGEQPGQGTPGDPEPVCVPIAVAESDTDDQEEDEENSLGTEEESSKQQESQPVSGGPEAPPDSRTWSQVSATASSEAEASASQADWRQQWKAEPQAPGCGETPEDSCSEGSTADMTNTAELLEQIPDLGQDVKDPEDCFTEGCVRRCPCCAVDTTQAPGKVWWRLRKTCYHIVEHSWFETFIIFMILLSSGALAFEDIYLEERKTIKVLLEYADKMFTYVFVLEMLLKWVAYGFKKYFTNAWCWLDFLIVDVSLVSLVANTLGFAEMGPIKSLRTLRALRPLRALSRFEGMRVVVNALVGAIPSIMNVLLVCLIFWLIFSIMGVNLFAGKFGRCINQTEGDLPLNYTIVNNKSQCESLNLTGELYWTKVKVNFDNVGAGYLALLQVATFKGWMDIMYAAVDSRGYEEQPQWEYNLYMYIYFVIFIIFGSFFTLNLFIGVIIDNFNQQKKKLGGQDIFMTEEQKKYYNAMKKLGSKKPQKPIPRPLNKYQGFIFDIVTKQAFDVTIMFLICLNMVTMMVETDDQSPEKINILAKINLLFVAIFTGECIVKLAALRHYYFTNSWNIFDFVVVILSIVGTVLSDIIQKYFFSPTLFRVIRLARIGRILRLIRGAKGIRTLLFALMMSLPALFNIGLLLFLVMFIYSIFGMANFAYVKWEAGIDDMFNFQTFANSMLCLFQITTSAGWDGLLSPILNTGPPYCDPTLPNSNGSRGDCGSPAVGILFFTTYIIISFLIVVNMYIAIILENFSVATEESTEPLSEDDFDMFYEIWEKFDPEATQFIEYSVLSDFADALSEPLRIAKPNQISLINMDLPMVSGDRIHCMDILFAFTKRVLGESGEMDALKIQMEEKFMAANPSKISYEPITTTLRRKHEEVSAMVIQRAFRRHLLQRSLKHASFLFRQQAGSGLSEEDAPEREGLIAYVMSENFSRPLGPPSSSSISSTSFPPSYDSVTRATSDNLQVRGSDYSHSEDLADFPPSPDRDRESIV
Procedure: The late sodium current (Late INa) and peak sodium current (Peak INa) assays are performed on an automated electrophysiology platform, PatchXpress 7000A (MDS Analytical Technologies, Sunnyvale, Calif.), which uses the whole cell patch clamp technique to measure currents through the cell membrane of up to 16 cells at a time. The assay uses an HEK293 (human embryonic kidney) cell line heterologously expressing the wild-type human cardiac sodium channel, hNav1.5, purchased from Millipore (Billerica, Mass.). No beta subunits were coexpressed with the Na channel alpha subunit. Cells are maintained with standard tissue culture procedures and stable channel expression is maintained with 400 μg/ml Geneticin in the culture medium. […] Experiments are carried out at 24-27° C.
For both the Late INa and Peak INa assays, series resistance compensation is set to 50% and whole-cell compensation is performed automatically. […] Currents through open sodium channels are automatically recorded and stored in the DataXpress2 database (MDS Analytical Technologies, Sunnyvale, Calif.). Analysis is performed using DataXpress2 analysis software and data are compiled in Excel.
Compound stocks are routinely made in glass vials to 10 mM in dimethyl sulfoxide (DMSO). In some cases, when compounds are not soluble in DMSO, they are made in 100% ethanol. Stocks are sonicated as necessary. The extracellular solution for screening Late INa is composed of: 140 mM NaCl, 4 mM KCl, 1.8 mM CaCl2, 0.75 mM MgCl2, and 5 mM HEPES with pH adjusted to 7.4 using NaOH. The extracellular solution for screening Peak INa is composed of: 20 mM NaCl, 120 mM N-methyl-D glucamine, 4 mM KCl, 1.8 mM CaCl2, 0.75 mM MgCl2, and 5 mM HEPES with pH adjusted to 7.4 using HCl. The intracellular solution used to perfuse the inside of the cells for both the Late INa and Peak INa assays contains: 120 mM CsF, 20 mM CsCl, 5 mM EGTA, 5 mM HEPES and pH adjusted to 7.4 with CsOH. […] The 0Na extracellular solution used at the end of each experiment for the Late INa and Peak INa assays to measure baseline current contains: 140 mM N-methyl-D-glucamine; 4 mM KCl; 1.8 mM CaCl2; 0.75 mM MgCl2; 5 mM HEPES and pH was adjusted to 7.4 with HCl.
For the Late INa assay, sodium channels are activated every 10 seconds (0.1 Hz) by depolarizing the cell membrane to −20 mV for 250 milliseconds (ms) from a holding potential of −120 mV. In response to a −20 mV voltage step, typical Nav1.5 sodium currents activate rapidly to a peak negative current and then inactivate nearly completely within […].
All compounds are tested to determine their activity in blocking the late sodium current. Late INa current is generated by adding 10 μM Tefluthrin (pyrethroid) to the extracellular solution while recording Na currents For some experiments, 50 nM ATX II (sea anemone toxin), another late INa activator, was used to generate the late component. […] After establishing the whole cell recording configuration, late INa activators are added to each well 4 times over a 16-17 minute period so that the late component of the Na current reaches a stable value. […] Measurements are made at the end of exposure to the third compound addition and values are normalized to the current level when all Na^+ is removed from the extracellular solution after two additions of 0Na-ECF. Results are reported as percent block of late INa

Structure (SMILES) | inhibition at 1 µM [%]
FC(F)(F)Oc1ccc(-c2ccc3nnc(C(F)(F)OCc4cc(-c5ccccc5)on4)n3c2)cc1 [BHN-298, 3-{difluoro[(5-phenyl-1,2-oxazol-3-yl)methoxy]methyl}-6-[4-(trifluoromethoxy)phenyl][1,2,4]triazolo[4,3-a]pyridine] | 70.3
Cc1c(-c2ccc(OC(F)(F)F)cc2)ccc2nnnn12 [BHN-269, 5-methyl-6-[4-(trifluoromethoxy)phenyl]tetrazolo[1,5-a]pyridine] | 44.7
FC(F)(F)Oc1ccc(COCc2nnc3ccc(-c4ccc(OC(F)(F)F)cc4)cn23)cc1 [BHN-242, 3-({[4-(trifluoromethoxy)benzyl]oxy}methyl)-6-[4-(trifluoromethoxy)phenyl][1,2,4]triazolo[4,3-a]pyridine] | 72.2
Cc1c(-c2ccc(OC(F)(F)F)cc2)ccc2nnc(C(F)(F)F)n12 [BHN-202, 5-methyl-6-[4-(trifluoromethoxy)phenyl]-3-(trifluoromethyl)[1,2,4]triazolo[4,3-a]pyridine] | 74.2
COC(C)(C)c1ccc(-c2ccc3nnc(C(F)(F)F)n3c2)cc1 [BHN-220, 6-[4-(2-methoxypropan-2-yl)phenyl]-3-(trifluoromethyl)[1,2,4]triazolo[4,3-a]pyridine] | 58.5
COc1ccc(N2CCN(CCOC(F)(F)c3nnc4ccc(-c5ccc(OC(F)(F)F)cc5)cn34)CC2)cc1 [BHN-264, 3-(difluoro{2-[4-(4-methoxyphenyl)piperazin-1-yl]ethoxy}methyl)-6-[4-(trifluoromethoxy)phenyl][1,2,4]triazolo[4,3-a]pyridine] | 54.3
CC(C)(C#N)c1ccc(-c2ccc3nnc(C(F)(F)F)n3c2)cc1 [BHN-66, 2-methyl-2-{4-[3-(trifluoromethyl)[1,2,4]triazolo[4,3-a]pyridin-6-yl]phenyl}propanenitrile] | 33.2
Cc1ccc(COCc2nnc3ccc(-c4ccc(OC(F)(F)F)cc4)cn23)c(C)c1 [BHN-251, 3-{[(2,4-dimethylbenzyl)oxy]methyl}-6-[4-(trifluoromethoxy)phenyl][1,2,4]triazolo[4,3-a]pyridine] | 75.8
FC(F)(F)Oc1ccc(-c2ccc3nnc(C(F)(F)OCc4cccc(-n5cnc(C6CC6)c5)c4)n3c2)cc1 [BHN-317, 3-[{[3-(4-cyclopropyl-1H-imidazol-1-yl)benzyl]oxy}(difluoro)methyl]-6-[4-(trifluoromethoxy)phenyl][1,2,4]triazolo[4,3-a]pyridine] | 46.4
FC(F)(F)Oc1ccc(-c2ccc3nnc(C(F)(F)OCc4ccncc4)n3c2)cc1 [BHN-149, 3-[difluoro(pyridin-4-ylmethoxy)methyl]-6-[4-(trifluoromethoxy)phenyl][1,2,4]triazolo[4,3-a]pyridine] | 34
FC(F)(F)Oc1ccc(-c2ccc3nnc(COCc4ccc(Cl)cc4)n3c2)cc1 [BHN-241, 3-{[(4-chlorobenzyl)oxy]methyl}-6-[4-(trifluoromethoxy)phenyl][1,2,4]triazolo[4,3-a]pyridine] | 82.2
FC(F)(F)c1nnc2ccc(-c3ccc(OC4CC4)cc3)cn12 [BHN-102, 6-[4-(cyclopropyloxy)phenyl]-3-(trifluoromethyl)[1,2,4]triazolo[4,3-a]pyridine] | 45.5
CC(C)(C)OC(=O)N1CCC[C@H]1COC(F)(F)c1nnc2ccc(-c3ccc(OC(F)(F)F)cc3)cn12 [BHN-256, tert-butyl (2S)-2-[(difluoro{6-[4-(trifluoromethoxy)phenyl][1,2,4]triazolo[4,3-a]pyridin-3-yl}methoxy)methyl]pyrrolidine-1-carboxylate] | 62.6
COCC(F)(F)c1nnc2ccc(C#Cc3ccc(F)cc3)cn12 [BHN-310, 3-(1,1-difluoro-2-methoxyethyl)-6-[(4-fluorophenyl)ethynyl][1,2,4]triazolo[4,3-a]pyridine] | 21.7
FC(F)(F)Oc1ccc(-c2ccc3nnc(C(F)(F)OCc4noc(C5CCC5)n4)n3c2)cc1 [BHN-259, 3-{[(5-cyclobutyl-1,2,4-oxadiazol-3-yl)methoxy](difluoro)methyl}-6-[4-(trifluoromethoxy)phenyl][1,2,4]triazolo[4,3-a]pyridine] | 71.6
N#Cc1nc(C(F)(F)F)n2cc(-c3ccc(OC(F)(F)F)cc3)ccc12 [BHN-117, 6-[4-(trifluoromethoxy)phenyl]-3-(trifluoromethyl)imidazo[1,5-a]pyridine-1-carbonitrile] | 66.3
FC(F)(F)c1nnc2ccc(-c3ccc(OC(F)(F)c4ccccc4)cc3)cn12 [BHN-272, 6-{4-[difluoro(phenyl)methoxy]phenyl}-3-(trifluoromethyl)[1,2,4]triazolo[4,3-a]pyridine] | 64.9
Fc1ccc(COCc2nnc3ccc(-c4ccc(OC(F)(F)F)cc4)cn23)c(F)c1 [BHN-240, 3-{[(2,4-difluorobenzyl)oxy]methyl}-6-[4-(trifluoromethoxy)phenyl][1,2,4]triazolo[4,3-a]pyridine] | 83.4
COc1ncc(-c2cc(OC(F)(F)F)ccc2-c2ccc3nnc(C(F)(F)F)n3c2)cn1 [BHN-131, 6-[2-(2-methoxypyrimidin-5-yl)-4-(trifluoromethoxy)phenyl]-3-(trifluoromethyl)[1,2,4]triazolo[4,3-a]pyridine] | 18.5
CCOC(=O)c1cccc(-c2nnc3ccc(-c4ccc(OC(F)(F)F)cc4)cn23)c1 [BHN-87, ethyl 3-{6-[4-(trifluoromethoxy)phenyl][1,2,4]triazolo[4,3-a]pyridin-3-yl}benzoate] | 38.9
Fc1cc(-c2ccc3nnc(C(F)(F)F)n3n2)ccc1OC(F)(F)F [BHN-209, 6-[3-fluoro-4-(trifluoromethoxy)phenyl]-3-(trifluoromethyl)[1,2,4]triazolo[4,3-b]pyridazine] | 61
CCOc1cc(OC(F)(F)F)ccc1-c1ccc2nnc(C(F)(F)F)n2c1 [BHN-222, 6-[2-ethoxy-4-(trifluoromethoxy)phenyl]-3-(trifluoromethyl)[1,2,4]triazolo[4,3-a]pyridine] | 65.3
FC(F)(F)c1ccc(-c2ccc3nnc(C(F)(F)OCc4cc(-c5ccccc5)on4)n3c2)cn1 [BHN-319, 3-{difluoro[(5-phenyl-1,2-oxazol-3-yl)methoxy]methyl}-6-[6-(trifluoromethyl)pyridin-3-yl][1,2,4]triazolo[4,3-a]pyridine] | 30.5
Cc1cc(-c2ccc(OC(F)(F)F)cc2)cn2nnnc12 [BHN-268, 8-methyl-6-[4-(trifluoromethoxy)phenyl]tetrazolo[1,5-a]pyridine] | 43.2

same assay, conditions: compound at 10 μM; HEK293 cells expressing hNav1.5; late INa generated with 10 μM Tefluthrin (or 50 nM ATX II); read-out: LateINa_10 uM (percent block of late INa)

Structure (SMILES) | inhibition at 10 µM [%]
FC(F)(F)c1nnc2cnc(-c3ccc(Oc4ccccc4)cc3)cn12 [BHN-16, 6-(4-phenoxyphenyl)-3-(trifluoromethyl)[1,2,4]triazolo[4,3-a]pyrazine] | 54.3
CC(C)(C#N)c1ccc(-c2ccc3nnc(C(F)(F)F)n3c2)cc1 [BHN-66, 2-methyl-2-{4-[3-(trifluoromethyl)[1,2,4]triazolo[4,3-a]pyridin-6-yl]phenyl}propanenitrile] | 70.7
COC(=O)/C=C/c1nc(C(F)(F)F)n2cc(-c3ccc(OC(F)(F)F)cc3)ccc12 [BHN-58, methyl (2E)-3-{6-[4-(trifluoromethoxy)phenyl]-3-(trifluoromethyl)imidazo[1,5-a]pyridin-1-yl}prop-2-enoate] | 27.6
FC(F)(F)Oc1ccc(-c2ccc3c(-c4ccccc4)nc(C(F)(F)F)n3c2)cc1 [BHN-34, 1-phenyl-6-[4-(trifluoromethoxy)phenyl]-3-(trifluoromethyl)imidazo[1,5-a]pyridine] | 33.4
Cc1cc2nnc(C(F)(F)F)n2cc1-c1cccc(OC(F)(F)F)c1 [BHN-17, 7-methyl-6-[3-(trifluoromethoxy)phenyl]-3-(trifluoromethyl)[1,2,4]triazolo[4,3-a]pyridine] | 25.3
CCOC(=O)c1cccc(-c2nnc3ccc(-c4ccc(OC(F)(F)F)cc4)cn23)c1 [BHN-87, ethyl 3-{6-[4-(trifluoromethoxy)phenyl][1,2,4]triazolo[4,3-a]pyridin-3-yl}benzoate] | 72.2
